The results in this text go back to publication PMC6341489 (2016).

The test relates to 2-AP-labeled miR-21-hp RNA (RNA, miRNA, 2-aminopurine at 15 (replaces A15)) GGGUUGACUGUUGAAUCUCAUGGCAACCC
The experiment in a line: 2-aminopurine fluorescence titration. To be noted: 137 mM NaCl, 3 mM KCl; apparent; PBS pH 7.4, 10% DMSO, RT, 2 μM RNA.

SMILES strings stand for the structures.

As to `OC(CNc1ccccc1)Cn1c2ccc(Br)cc2c2cc(Br)ccc21` (stereo not shown), the Kd was found to be 3.2 ± 0.7 µM.
